Structures are written as SMILES.

Results on 3 compounds are retold here after article doi:10.1101/2020.06.27.175109v1 (biorxiv, 2020).

The target of experiment [1] is T1, CK2α (full-length, NanoLuc fusion) (Homo sapiens, UniProt P68400). Kind of experiment: cell-based. On the set-up: species or system HEK293T.
Experiment [2] has as its target T2, CK2α’ (full-length, NanoLuc fusion) (Homo sapiens, UniProt P19784). As to the kind of experiment: cell-based. On the set-up: species or system HEK293T.
Experiment [3] concerns the target T1, CK2α (full-length, NanoLuc fusion). As to the kind of experiment: NanoBRET tracer displacement, intact HEK293T. Type of experiment: cell-based. As to conditions: intact cells, […] h, […] °C, tracer competition. In general terms: Bioluminescence resonance energy transfer reports proximity on the nanometre scale.
The target of experiment [4] is T2, CK2α’ (full-length, NanoLuc fusion). As to the kind of experiment: NanoBRET tracer displacement, intact HEK293T. Type of experiment: cell-based. As to conditions: intact cells, […] h, […] °C, tracer competition.

T2 sequence (P19784 whole entry, the tested form may be a part): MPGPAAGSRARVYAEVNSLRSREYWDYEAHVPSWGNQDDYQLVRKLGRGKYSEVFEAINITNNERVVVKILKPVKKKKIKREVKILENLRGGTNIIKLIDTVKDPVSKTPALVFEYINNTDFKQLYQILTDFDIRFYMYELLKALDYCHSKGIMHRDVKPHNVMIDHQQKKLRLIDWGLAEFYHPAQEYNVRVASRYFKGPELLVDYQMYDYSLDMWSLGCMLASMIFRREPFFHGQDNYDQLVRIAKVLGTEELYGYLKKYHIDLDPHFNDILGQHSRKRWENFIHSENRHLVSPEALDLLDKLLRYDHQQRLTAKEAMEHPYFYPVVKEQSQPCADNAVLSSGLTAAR
T1 sequence (P68400 whole entry, the tested form may be a part): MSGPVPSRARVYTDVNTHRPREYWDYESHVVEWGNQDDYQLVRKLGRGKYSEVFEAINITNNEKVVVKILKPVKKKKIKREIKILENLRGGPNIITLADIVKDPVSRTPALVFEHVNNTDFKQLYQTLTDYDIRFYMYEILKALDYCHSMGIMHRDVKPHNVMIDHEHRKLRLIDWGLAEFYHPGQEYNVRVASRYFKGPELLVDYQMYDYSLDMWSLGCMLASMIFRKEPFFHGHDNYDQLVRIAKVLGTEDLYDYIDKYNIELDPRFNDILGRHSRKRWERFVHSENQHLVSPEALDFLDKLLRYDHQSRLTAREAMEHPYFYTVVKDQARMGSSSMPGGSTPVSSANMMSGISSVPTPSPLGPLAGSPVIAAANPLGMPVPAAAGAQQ

A word on the IC50: it is the concentration needed to halve the response being measured. `CC(C)(C)OC(=O)N(CCOCCO)c1ccn2ncc(-c3ccc(C#N)c(O)c3)c2n1` [compound 23, tert-Butyl N-[3-(4-cyano-3-hydroxyphenyl)pyrazolo[1,5-a]pyrimidin-5-yl]-N-[2-(2-hydroxyethoxy)ethyl]carbamate]: the IC50 in experiment [1] and in experiment [2] was more than 50 µM each time.
For the compound `O=C(O)c1ccc2cc1OCCOCCNc1ccn3ncc-2c3n1` [compound 34, 7,10-Dioxa-13,17,18,21-tetraazatetracyclo[12.5.2.1^2,^6.0^17,^20]docosa-1(20),2,4,6(22),14(21),15,18-heptaene-5-carboxylic acid], the IC50 worked out at 5.7 µM in experiment [3] and 16.2 µM in experiment [4].
In experiment [4], `CC(C)(C)OC(=O)N1CCOCCOc2cc(ccc2C(=O)O)-c2cnn3ccc1nc23` [compound 32, 13-[(tert-Butoxy)carbonyl]-7,10-dioxa-13,17,18,21-tetraazatetracyclo[12.5.2.1^2,^6.0^17,^20]docosa-1(20),2,4,6(22),14(21),15,18-heptaene-5-carboxylic acid] returned a 50% inhibitory concentration (IC50) of 7.39 µM.
